According to PMC4521925, “17β-Hydroxysteroid Dehydrogenase Type 2 Inhibition: Discovery of Selective and Metabolically Stable Compounds Inhibiting Both the Human Enzyme and Its Murine Ortholog” (PLoS ONE, 2015):

Assays:
m17β-HSD2 = target: T1, m17β-HSD2 (Mus musculus, UniProt P51658); assay: Inhibition of m17β-HSD2 in cell-free assay; assay type: biochemical
T1 construct: The microsomal fraction (m17β-HSD2) was obtained from mouse liver as described for h17β-HSD2; tissue Pharmacelsus GmbH (mouse livers); host or cells: mouse liver, microsomal fraction
T1 sequence (P51658 1-381): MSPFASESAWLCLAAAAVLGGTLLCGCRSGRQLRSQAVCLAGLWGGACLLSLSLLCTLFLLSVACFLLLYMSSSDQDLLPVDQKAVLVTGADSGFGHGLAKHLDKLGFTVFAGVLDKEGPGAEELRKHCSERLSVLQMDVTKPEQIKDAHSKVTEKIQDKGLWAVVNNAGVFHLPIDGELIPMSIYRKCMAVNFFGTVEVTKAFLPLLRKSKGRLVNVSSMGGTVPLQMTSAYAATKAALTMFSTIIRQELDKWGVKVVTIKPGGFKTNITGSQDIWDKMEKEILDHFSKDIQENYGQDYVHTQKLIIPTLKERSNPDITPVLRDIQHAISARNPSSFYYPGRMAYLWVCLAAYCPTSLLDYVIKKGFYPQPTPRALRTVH
How it was run: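 Mouse liver microsomal enzyme incubated with tritiated substrate, NAD+ [1500 μM] and inhibitor at 37 °C in 50 mM phosphate buffer with 20% glycerol, 1 mM EDTA, 1% DMSO final. Stopped after 20 min with HgCl2, steroids ether-extracted and quantified by HPLC radioflow detection; at least two independent experiments.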

ERα = target: T2, ERα (Homo sapiens, UniProt P03372); assay: Estrogen receptor affinity in a cell-free assay (ERα); assay type: binding; details: 1000-fold excess relative to E2; recombinant human ERα
T2 sequence (P03372 1-595): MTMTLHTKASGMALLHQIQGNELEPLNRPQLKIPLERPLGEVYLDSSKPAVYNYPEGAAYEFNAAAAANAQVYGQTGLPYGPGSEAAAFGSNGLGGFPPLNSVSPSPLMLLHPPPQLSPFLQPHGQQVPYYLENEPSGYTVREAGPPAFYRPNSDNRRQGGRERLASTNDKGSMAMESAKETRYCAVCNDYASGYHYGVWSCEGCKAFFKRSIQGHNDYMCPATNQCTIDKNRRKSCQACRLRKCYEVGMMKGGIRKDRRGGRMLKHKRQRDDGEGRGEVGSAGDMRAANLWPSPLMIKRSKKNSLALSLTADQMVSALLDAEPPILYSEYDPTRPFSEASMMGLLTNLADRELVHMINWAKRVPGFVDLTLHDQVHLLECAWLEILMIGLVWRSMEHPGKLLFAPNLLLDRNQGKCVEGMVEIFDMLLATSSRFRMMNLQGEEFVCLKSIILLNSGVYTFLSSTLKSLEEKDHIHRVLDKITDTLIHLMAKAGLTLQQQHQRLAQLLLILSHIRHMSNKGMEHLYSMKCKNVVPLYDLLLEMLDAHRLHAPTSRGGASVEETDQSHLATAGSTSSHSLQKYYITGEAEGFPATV
Method: The binding affinity of selected compounds to ERα and ERβ was determined according to the recommendations of the US Environmental Protection Agency (EPA) by their Endocrine Disruptor Screening Program (EDSP)[24] using recombinant human proteins.
The potential inhibitors were dissolved in DMSO (5% final concentration). […] After incubation, ligand-receptor complexes were selectively bound to hydroxyapatite (83.5 g/LinTE-buffer). The bound complex was washed three times and resuspended in ethanol. For radiodetection, scintillator cocktail (Quickszint 212, Zinsser Analytic, Frankfurt) was added and samples were measured in a liquid scintillation counter (1450 LSC & Luminescence Counter, Perkin Elmer).
After the assay was established and validated, a modification was made to increase throughput.

h17β-HSD2 = target: T3, h17β-HSD2 (Homo sapiens, UniProt P37059); assay: Inhibition of h17β-HSD2 in a cellular assay (MDA-MB-231); assay type: cell-based; details: MDA-MB-231 cell line, substrate E2 [200 nM], 6 h; for inhibition at 0.25 µM: MDA-MB-231, 250 nM, read-out: % inh HSD2 at 250 nM; for inhibition at 1.25 µM: MDA-MB-231, 1250 nM, read-out: % inh HSD2 at 1250 nM
T3 sequence (P37059 1-387): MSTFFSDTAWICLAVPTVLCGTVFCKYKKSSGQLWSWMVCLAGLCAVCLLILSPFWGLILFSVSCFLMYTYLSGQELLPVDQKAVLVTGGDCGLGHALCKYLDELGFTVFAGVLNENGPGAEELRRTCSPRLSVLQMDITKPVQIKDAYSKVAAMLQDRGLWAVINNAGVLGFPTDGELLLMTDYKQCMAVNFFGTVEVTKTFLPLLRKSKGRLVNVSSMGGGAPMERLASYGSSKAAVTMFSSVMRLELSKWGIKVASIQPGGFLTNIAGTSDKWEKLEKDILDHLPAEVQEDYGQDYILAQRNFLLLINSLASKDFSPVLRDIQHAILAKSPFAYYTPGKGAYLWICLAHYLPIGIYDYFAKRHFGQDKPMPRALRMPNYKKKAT
Method: Cellular h17β-HSD2 inhibitory activity is measured using the breast cancer cell-line MDA-MB-231[32] (17β-HSD1 activity negligible). [^3H]-E2 (200 nM) is taken as substrate and is incubated with the inhibitor for 6 h at 37°C. After ether extraction, substrate and product are separated by HPLC and detected with a radioflow detector. Potency is evaluated as percentage of inhibition (inhibitor concentrations used: 1250 nM and 250 nM).

[1] = Metabolic stability in a cell-free assay (liver S9 fraction); assay type: in vitro ADME; details: human liver S9 fraction 1 mg/ml, NADPH regenerating system, UDPGA, PAPS, 37°C, inhibitor 1 μM; for half-life at 1 μM: pooled liver S9 fraction, read-out: Inhibitor t1/2
Method: Compounds 7a, 8a, 16a, 19a, 22a, 27a and 27 were tested according to established method[33–35]For evaluation of phase I and II metabolic stability 1 μM compound was incubated with 1 mg/ml pooled mammalian liver S9 fraction (BD Gentest), 2 mM NADPH regenerating system, 1 mM UDPGA and 0.1 mM PAPS at 37°C for 0, 5, 15 and 60 minutes at a final volume of 100 μL. The incubation was stopped by precipitation of S9 enzymes with 2 volumes of cold acetonitrile containing internal standard. Concentration of the remaining test compound at the different time points was analyzed by LC-MS/MS and used to determine half-life (t1/2).

Row | Compound | inhibition at 1 µM (m17β-HSD2; read-out: % inh. at 1 μM m17β-HSD2) [%] | displacement of E2 from ERα (ERα) [%] | melting point [°C] | IC50 (m17β-HSD2) [nM] | inhibition at 0.25 µM (h17β-HSD2) [%] | inhibition at 1.25 µM (h17β-HSD2) [%] | half-life at 1 μM [1] [h] | Inhibitor t1/2 [1]
1 | Cc1cccc(N(C)C(=O)c2ccc(-c3cccc(C)c3F)cc2)c1 [Compound 21a, 2'-Fluoro-N,3'-dimethyl-N-(m-tolyl)-[1,1'-biphenyl]-4-carboxamide] | 56 | ≤ 20 | 73 to 76 |  |  |  |  | 
2 | COc1cccc(N(C)C(=O)c2ccc(-c3cccc(C)c3)cc2)c1 [Compound 6a, N-(3-methoxyphenyl)-N,3'-dimethyl-[1,1'-biphenyl]-4-carboxamide] |  | ≤ 20 |  | 260 | 60 | ~90 | 1.77 | 
3 | Cc1cccc(-c2ccc(C(=O)N(C)Cc3cccc(O)c3)cc2)c1F [Compound 25, 2'-Fluoro-N-(3-hydroxybenzyl)-N,3'-dimethyl-[1,1'-biphenyl]-4-carboxamide] |  | ≤ 20 | 123 to 126 | 190 | 67 | ~90 | 0.1 | short half-life
4 | COc1cccc(N(C)C(=O)c2ccc(-c3ccc(C)c(C)c3)cc2)c1 [Compound 17a, N-(3-methoxyphenyl)-N,3',4'-trimethyl-[1,1'-biphenyl]-4-carboxamide] |  | ≤ 20 |  | 140 | 66 | ~90 | 1.78 | 
